In general, melting point refers to the temperature of the solid-liquid transition.

One series has as its system Zymoseptoria tritici. The series can be described thus: Leaf Blotch of Wheat (SEPTTR) disease control on wheat seedlings. The format is in vivo. The conditions noted are these: for pest or weed control at 121.5 g/ha: Low Volume (121.5 g/H); for pest or weed control at 100 µg/mL: High Volume (100 ppm). As to the method: Example A: Evaluation of Fungicidal Activity: Leaf Blotch of Wheat (Mycosphaerella graminicola; Anamorph: Zymoseptoria tritici; Bayer code […]) Technical grades of materials were dissolved in acetone, which were then mixed with nine volumes of water containing 110 ppm Triton X-100. The fungicide solutions were applied onto wheat seedlings using an automated booth sprayer to run-off. All sprayed plants were allowed to air dry prior to further handling. All fungicides were evaluated using the aforementioned method for their activity vs. all target diseases, unless stated otherwise. Wheat leaf blotch and brown rust activity were also evaluated using track spray applications, in which case the fungicides were formulated as EC formulations, containing 0.1% Trycol 5941 in the spray solutions. Wheat plants (variety Yuma) were grown from seed in a greenhouse in 50% mineral soil/50% soil-less Metro mix until the first leaf was fully emerged, with 7-10 seedlings per pot. These plants were inoculated with an aqueous spore suspension of Septoria tritici either prior to or after fungicide treatments. After inoculation the plants were kept in 100% relative humidity (one day in a dark dew chamber followed by two to three days in a lighted dew chamber at 20° C.) to permit spores to germinate and infect the leaf. The plants were then transferred to a greenhouse set at 20° C. for disease to develop. When disease symptoms were fully expressed on the 1st leaves of untreated plants, infection levels were assessed on a scale of 0 to 100 percent disease severity. Percent disease control was calculated using the ratio of disease severity on treated plants relative to untreated plants.

The subject of the next series is Puccinia triticina. In words: Wheat Brown Rust (PUCCRT) disease control on wheat seedlings. The series is classed as in vivo. As to conditions: for pest or weed control at 121.5 g/ha: Low Volume (121.5 g/H); for pest or weed control at 100 µg/mL: High Volume (100 ppm). As to the method:
Technical grades of materials were dissolved in acetone, which were then mixed with nine volumes of water containing 110 ppm Triton X-100. The fungicide solutions were applied onto wheat seedlings using an automated booth sprayer to run-off. All sprayed plants were allowed to air dry prior to further handling. All fungicides were evaluated using the aforementioned method for their activity vs. all target diseases, unless stated otherwise. Wheat leaf blotch and brown rust activity were also evaluated using track spray applications, in which case the fungicides were formulated as EC formulations, containing 0.1% Trycol 5941 in the spray solutions. Wheat plants (variety Yuma) were grown from seed in a greenhouse in 50% mineral soil/50% soil-less Metro mix until the first leaf was fully emerged, with 7-10 seedlings per pot. These plants were inoculated with an aqueous spore suspension of Septoria tritici either prior to or after fungicide treatments. After inoculation the plants were kept in 100% relative humidity (one day in a dark dew chamber followed by two to three days in a lighted dew chamber at 20° C.) to permit spores to germinate and infect the leaf. The plants were then transferred to a greenhouse set at 20° C. for disease to develop. When disease symptoms were fully expressed on the 1st leaves of untreated plants, infection levels were assessed on a scale of 0 to 100 percent disease severity. Percent disease control was calculated using the ratio of disease severity on treated plants relative to untreated plants. Example B: Evaluation of Fungicidal Activity: Wheat Brown Rust (Puccinia triticina; Synonym: Puccinia recondita f. sp. tritici; Bayer code PUCCRT) Wheat plants (variety Yuma) were grown from seed in a greenhouse in 50% mineral soil/50% soil-less Metro mix until the first leaf was fully emerged, with 7-10 seedlings per pot. These plants were inoculated with an aqueous spore suspension of Puccinia triticina either prior to or after fungicide treatments. After inoculation the plants were kept in a dark dew room at 22° C. with 100% relative humidity overnight to permit spores to germinate and infect the leaf. The plants were then transferred to a greenhouse set at 24° C. for disease to develop. Fungicide formulation, application and disease assessment followed the procedures as described in the Example A.

The next series relates to Phakopsora pachyrhizi. The series can be described thus: Asian Soybean Rust (PHAKPA) disease control. The series is classed as in vivo. As to conditions: 25 ppm. The protocol: Example H: Evaluation of Fungicidal Activity: Asian Soybean Rust (Phakopsora pachyrhizi; Bayer Code […]) Technical grades of materials were dissolved in acetone, which were then mixed with nine volumes of water containing 0.011% Tween 20. The fungicide solutions were applied onto soybean seedlings using an automated booth sprayer to run-off. All sprayed plants were allowed to air dry prior to further handling. Soybean plants (variety Williams 82) were grown in soil-less Metro mix, with one plant per pot. Two weeks old seedlings were used for testing. Plants were inoculated either 3 days prior to or 1 day after fungicide treatments. Plants were incubated for 24 h in a dark dew room at 22° C. and 100% relative humidity then transferred to a growth room at 23° C. for disease to develop. Disease severity was assessed on the sprayed leaves.

The mark [1] stands for this setting: 24 h, 1 Day Protectant, read-out: SEPTTR disease control, 1 DP.
Where [2] appears, read: 72 h, 3 Day Curative, read-out: SEPTTR disease control, 3 DC.
Where [3] appears, read: 24 h, 1 Day Protectant, read-out: PUCCRT disease control, 1 DP.
[4] abbreviates: 72 h, 3 Day Curative, read-out: PUCCRT disease control, 3 DC.

Structures are written as SMILES. Like-named read-outs stand apart in the source and are kept apart here. Where only a bound is given, the exact number is not on record here.

With `CCCC[C@H]1[C@H](C)OC(=O)[C@@H](N)CCO[C@@H]1COc1ccccc1.Cl`, the melting point fell in the range of 195 to 197 °C.
Compound `COc1ccnc(C(=O)N[C@H]2CCO[C@H](CCc3ccccc3)[C@@H](CCC(C)C)[C@H](C)OC2=O)c1OCOC(C)=O` [Compound 26] gave a melting point of 48 to 54 °C. The pest or weed control at 121.5 g/ha in the series on Zymoseptoria tritici (setting [1]) is more than 70%. Moreover, in the series with Zymoseptoria tritici (setting [2]), the pest or weed control at 121.5 g/ha was more than 70%. In the series with Puccinia triticina (setting [3]), the pest or weed control at 121.5 g/ha was more than 70%. In addition, the pest or weed control at 121.5 g/ha in the series with Puccinia triticina (setting [4]) is more than 70%.
`COc1ccnc(C(=O)N[C@H]2CCO[C@H](CCc3ccc(F)cc3)[C@@H](CCC(C)C)[C@H](C)OC2=O)c1OCOC(C)=O` [Compound 27]: the melting point fell in the range of 49 to 54 °C. The pest or weed control at 121.5 g/ha with Zymoseptoria tritici (setting [1]) is more than 70%. In addition, the pest or weed control at 121.5 g/ha in the series with Zymoseptoria tritici (setting [2]) is more than 70%. Moreover, the pest or weed control at 121.5 g/ha in the series with Puccinia triticina (setting [3]) was more than 70%. Besides, the pest or weed control at 121.5 g/ha in the series with Puccinia triticina (setting [4]) was more than 70%.
In turn, `COc1ccnc(C(=O)N[C@H]2CCO[C@H](Cc3ccccc3)[C@@H](CCC(C)C)[C@H](C)OC2=O)c1OCOC(C)=O` [Compound 29] returned a melting point of 55 to 60 °C. The pest or weed control at 121.5 g/ha in the series with Zymoseptoria tritici (setting [1]) was more than 70%. Further, in the series on Zymoseptoria tritici (setting [2]), the pest or weed control at 121.5 g/ha was more than 70%. The pest or weed control at 121.5 g/ha with Puccinia triticina (setting [3]) is more than 70%. Besides, the pest or weed control at 121.5 g/ha in the series on Puccinia triticina (setting [4]) was more than 70%.
Compound `COc1ccnc(C(=O)N[C@H]2CCO[C@H](CCc3ccc(F)cc3)[C@@H](CCC(C)C)[C@H](C)OC2=O)c1OCOC(=O)C(C)C` [Compound 39] registered a melting point of 49 to 54 °C. Further, the pest or weed control at 121.5 g/ha with Zymoseptoria tritici (setting [1]) was more than 70%. Moreover, in the series with Zymoseptoria tritici (setting [2]), the pest or weed control at 121.5 g/ha was less than 70%. Also, the pest or weed control at 121.5 g/ha in the series on Puccinia triticina (setting [3]) is more than 70%. In addition, the pest or weed control at 121.5 g/ha with Puccinia triticina (setting [4]) was more than 70%.
`COc1ccnc(C(=O)N[C@H]2CCOC[C@@H](Cc3ccccc3-c3ccccc3)[C@H](C)OC2=O)c1OCOC(=O)C(C)C` [Compound 40] displayed a melting point of 54 to 59 °C. In the series with Zymoseptoria tritici (setting [1]), the pest or weed control at 121.5 g/ha is more than 70%. Besides, the pest or weed control at 121.5 g/ha with Zymoseptoria tritici (setting [2]) is more than 70%. Further, the pest or weed control at 121.5 g/ha in the series with Puccinia triticina (setting [3]) is more than 70%. Besides, the pest or weed control at 121.5 g/ha in the series on Puccinia triticina (setting [4]) is more than 70%.
In the case of `CCC[C@H]1OCC[C@H](NC(=O)c2nccc(OC)c2OCOC(=O)COCC)C(=O)O[C@@H](C)[C@@H]1Cc1ccccc1` [Compound 43], the pest or weed control at 100 µg/mL with Zymoseptoria tritici (setting [1]), in the series on Zymoseptoria tritici (setting [2]), with Puccinia triticina (setting [3]) and in the series on Puccinia triticina (setting [4]) was more than 70% in each case. Moreover, the pest or weed control at 121.5 g/ha in the series on Zymoseptoria tritici (setting [1]), in the series on Zymoseptoria tritici (setting [2]), in the series with Puccinia triticina (setting [3]) and with Puccinia triticina (setting [4]) was more than 70% each time. Further, the “PHAKPA disease control, 1DP” value in the series on Phakopsora pachyrhizi (1 Day Protectant) is given as “A (>70)”. Further, in the series on Phakopsora pachyrhizi (3 Day Curative), the “PHAKPA disease control, 3DC” value was “A (>70)”.
For the compound `CCC[C@H]1OCC[C@H](NC(=O)c2nccc(OC)c2O)C(=O)O[C@@H](C)[C@@H]1Cc1ccccc1` [Compound 50], the melting point was in the range of 52 to 56 °C. In addition, in the series on Zymoseptoria tritici (setting [1]), the pest or weed control at 100 µg/mL was more than 70%. Also, the pest or weed control at 100 µg/mL with Zymoseptoria tritici (setting [2]) is more than 70%. For the same compound, the pest or weed control at 100 µg/mL with Puccinia triticina (setting [3]) was more than 70%. The pest or weed control at 100 µg/mL in the series with Puccinia triticina (setting [4]) was more than 70%.
Regarding `CCCC[C@H]1OCC[C@H](NC(=O)c2nccc(OC)c2O)C(=O)O[C@@H](C)[C@@H]1Cc1ccc(F)cc1` [Compound 56], the pest or weed control at 100 µg/mL was less than 70% in the series on Zymoseptoria tritici (setting [1]), more than 70% with Zymoseptoria tritici (setting [2]), more than 70% in the series on Puccinia triticina (setting [3]) and more than 70% with Puccinia triticina (setting [4]).
`COc1ccnc(C(=O)N[C@H]2CCO[C@H](CCc3ccccc3)[C@@H](Cc3ccc(F)cc3)[C@H](C)OC2=O)c1O` [Compound 57, N-((2R,3S,4S,7S)-3-(4-fluorobenzyl)-4-methyl-6-oxo-2-phenethyl-1,5-dioxonan-7-yl)-3-hydroxy-4-methoxypicolinamide]: the pest or weed control at 100 µg/mL in the series with Zymoseptoria tritici (setting [1]) is more than 70%; in the series on Zymoseptoria tritici (setting [2]) it was more than 70%; in the series with Puccinia triticina (setting [3]) it was more than 70%; in the series on Puccinia triticina (setting [4]) it was less than 70%.
As for `COc1ccnc(C(=O)N[C@H]2CCO[C@H](CCc3ccccc3)[C@@H](CCC(C)C)[C@H](C)OC2=O)c1O` [Compound 59], the pest or weed control at 100 µg/mL in the series on Zymoseptoria tritici (setting [1]), in the series with Zymoseptoria tritici (setting [2]), in the series on Puccinia triticina (setting [3]) and in the series on Puccinia triticina (setting [4]) was more than 70% each time.
Take `COc1ccnc(C(=O)N[C@H]2CCOC[C@@H](CCC(C)C)[C@H](C)OC2=O)c1O` [Compound 63]: the melting point lay within 49 to 53 °C.
Consider `CCCC[C@H]1[C@H](C)OC(=O)[C@@H](NC(=O)c2nccc(OC)c2O)CCO[C@@H]1CCc1ccccc1` [Compound 64], for which the pest or weed control at 100 µg/mL in the series on Zymoseptoria tritici (setting [1]), with Zymoseptoria tritici (setting [2]), with Puccinia triticina (setting [3]) and with Puccinia triticina (setting [4]) was more than 70% in each case.
In turn, `CCCC[C@H]1[C@H](C)OC(=O)[C@@H](NC(=O)c2nccc(OC)c2O)CCO[C@@H]1CC` [Compound 67] had a melting point of 44 to 46 °C. For the same compound, the pest or weed control at 100 µg/mL in the series with Zymoseptoria tritici (setting [1]) was more than 70%. The pest or weed control at 100 µg/mL in the series on Zymoseptoria tritici (setting [2]) is less than 70%. For the same compound, the pest or weed control at 100 µg/mL in the series on Puccinia triticina (setting [3]) was more than 70%. Also, the pest or weed control at 100 µg/mL with Puccinia triticina (setting [4]) is more than 70%.
Take `CCCC[C@H]1[C@H](C)OC(=O)[C@@H](NC(=O)c2nccc(OC)c2O)CCO[C@@H]1COc1ccccc1` [Compound 68]: the pest or weed control at 100 µg/mL is more than 70% in the series with Zymoseptoria tritici (setting [1]), less than 70% in the series on Zymoseptoria tritici (setting [2]), more than 70% in the series on Puccinia triticina (setting [3]) and more than 70% with Puccinia triticina (setting [4]).
Regarding `CC(C)CC[C@H]1[C@H](C)OC(=O)[C@@H](NC(=O)OC(C)(C)C)CCO[C@@H]1CCc1ccc(F)cc1` [Compound 100], the melting point lay within 39 to 44 °C.
The compound `CC(C)CC[C@H]1[C@H](C)OC(=O)[C@@H](NC(=O)OC(C)(C)C)CCO[C@@H]1Cc1ccccc1` [Compound 102] registered a melting point of 41 to 44 °C.
In turn, `CC(C)CC[C@@H]1COCC[C@H](NC(=O)OC(C)(C)C)C(=O)O[C@H]1C` [Compound 103] had a melting point of 110 to 112 °C.

(Values after patent US9686984B2, “Macrocyclic picolinamides as fungicides” (DOW AGROSCIENCES LLC, priority 2014, dated 2017).)
